Experimental data published in patent publication US7919517B2, “Indazole derivatives” (Kyowa Hakko Kirin Co., Ltd., priority 2003, dated 2011).
Where a name gives a salt, the structure may show the parent alone.

Key:
Type in all cases: cell-based
[1] = tested on: human colon cancer cell line Colo205; assay: Cytostatic activity on solid carcinoma cell line Colo205 (WST-1); settings: 72 hours, Colo205 cells; for inhibition at 10 µM: Homo sapiens, COLO 205, 10 μmol/L, read-out: cytostatic rate Colo205 (%) (10 μmol/L)
Protocol: (§1) Each cell was cultured using Roswell Park Memorial Institute's Medium (RPMI) 1640 (Gibco, Catalog No. 11875-093) containing 10% fetal bovine serum (Gibco, Catalog No. 10437-028) and 1% penicillin/streptomycin (1:1) (Gibco, Catalog No. 15140-122). Each 80 μL of the MV-4-11 cell having a concentration of 7.5×10^4 cells/mL (or the ML-1 cell or K562 cell having a concentration of 2.5×10^4 cells/mL) was inoculated to wells of a TC MICROWELL 96U plate (Nalge Nunc International, Catalog No. 163320) and was cultured in a 5% carbon dioxide gas incubator at 37° C. for 4 hours. As a blank, only RPMI medium (80 μL) was added to a well. Each 20 μL of a solution of the test compound in dimethyl sulfoxide (DMSO) which was prepared to make the final concentration to 10 μmol/L, was added to the MV-4-11 cell, ML-1 cell and K562 cell, respectively. Each 20 μL of DMSO was added to the control well and the blank well to […]. After adding the test compound, the cells were incubated in a 5% carbon dioxide gas incubator at 37° C. for 72 hours. After adding 20 μL of WST-1 reagent {4-[3-(4-iodophenyl)-2-(4-nitrophenyl)-2H-5-tetrazolio]-1,3-benzene disulfonate sodium salt} (Roche Diagnostics K.K., Catalog No. 1644807) diluted to 50% with RPMI medium, the cells were further incubated at 37° C. for 2 hours. Then, the absorbances at 450 nm (reference wavelength: 690 nm) were determined with a microplate spectrophotometer SPECTRA max 340PC (Molecular Devices Corporation). The relative growth (%) of a well to which the test compound had been added was determined while setting the absorbance of a well to which not the test compound but DMSO alone had been added (control) at 100% and that of a well containing RPMI medium alone at 0%. The cytostatic rate (%) of the test compound was determined by subtracting the calculated relative growth from 100.
The cytostatic rate of a test compound on the human colon cancer cell line Colo205 was determined in the following manner.
The cell was cultured using Roswell Park Memorial Institute's Medium (RPMI) 1640 (Gibco, Catalog No. 11875-093) containing 10% fetal bovine serum (Gibco, Catalog No. 10437-028) and 1% penicillin/streptomycin (1:1) (Gibco, Catalog No. 15140-122). Each 80 μL of the Colo205 having a concentration of 1.25×10^4 cells/mL was inoculated to wells of a TC MICROWELL 96F plate (Nalge Nunc International, Catalog No. 167008) and was cultured in a 5% carbon dioxide gas incubator at 37° C. for 24 hours. As a blank, only RPMI (80 μL) was added to a well. Each 20 μL of a solution of the test compound in DMSO which was prepared to make the final concentration to 10 μmol/L, was added to the Colo205 cell. Each 20 μL of DMSO was added to the control well and the blank well to […]. After adding the test compound, the cell was incubated in a 5% carbon dioxide gas incubator at 37° C. for 72 hours. The cytostatic rate (%) was then determined in the same way as the leukemia cell lines.

[2] = tested on: human chronic myeloid leukemia cell line K562; assay: Cytostatic activity on leukemia cell line K562 (WST-1); settings: 72 hours, K562 cells; for inhibition at 10 µM: Homo sapiens, 10 μmol/L, read-out: cytostatic rate K562 (%) (10 μmol/L)
Protocol: (§2) The cytostatic rates of a test compound on human acute myeloid leukemia cell lines MV-4-11 and ML-1, and human chronic myeloid leukemia cell line K562 were determined in the following manner.
as §1

[3] = tested on: human acute myeloid leukemia cell line ML-1; assay: Cytostatic activity on leukemia cell line ML-1 (WST-1); settings: 72 hours, ML-1 cells; for inhibition at 10 µM: Homo sapiens, ML1, 10 μmol/L, read-out: cytostatic rate ML-1 (%) (10 μmol/L)
Protocol: as §2, §1

[4] = tested on: human acute myeloid leukemia cell line MV-4-11; assay: Cytostatic activity on leukemia cell line MV-4-11 (WST-1); settings: 72 hours, MV-4-11 cells; for inhibition at 10 µM: Homo sapiens, MV4-11, 10 μmol/L, read-out: cytostatic rate MV-4-11 (%) (10 μmol/L)
Protocol: as §2, §1

In the case of `O=C(c1ccc(/C=C/c2n[nH]c3ccccc23)cc1)N1CCN(c2c(N3CCOCC3)c(=O)c2=O)CC1` [Compound 156, (E)-3-morpholino-4-{[4-(2-(1H-indazol-3-yl)vinyl)benzoyl]piperazin-1-yl}-3-cyclobutene-1,2-dione], the “cytostatic rate Colo205 (%) (10 μmol/L)” value [1] is reported as 92%, the “cytostatic rate K562 (%) (10 μmol/L)” value [2] is reported as 94% and the “cytostatic rate ML-1 (%) (10 μmol/L)” value [3] is reported as 85%. For the same molecule, the “cytostatic rate MV-4-11 (%) (10 μmol/L)” value [4] was 99%.

`CC(C)C(=O)N1CCN(C(=O)c2ccc(/C=C/c3n[nH]c4ccccc34)cc2)CC1` [Compound 56, (E)-4-isobutyryl-1-{4-[2-(1H-indazol-3-yl)vinyl]benzoyl}piperazine] was tested, and the inhibition at 10 µM [1] was 88%, the inhibition at 10 µM [2] was 87% and the inhibition at 10 µM [3] was 78%. The inhibition at 10 µM [4] was 98%.

Work on `O=C(c1ccc(/C=C/c2n[nH]c3ccccc23)cc1)N1CCN(C(=O)[C@H]2CCNC2)CC1` [Compound 124, (S)-(E)-1-{4-[2-(1H-indazol-3-yl)vinyl]benzoyl}-4-(pyrrolidin-3-ylcarbonyl)piperazine dihydrochloride] yielded an inhibition at 10 µM [1] of 87%, an inhibition at 10 µM [2] of 94% and an inhibition at 10 µM [3] of 83%. The inhibition at 10 µM [4] was 98%.

`CS(=O)(=O)Nc1cccc(/C=C/c2n[nH]c3ccccc23)c1` [Compound 27, (E)-N-{3-[2-(1H-indazol-3-yl)vinyl]phenyl}methanesulfonamide] was tested, and the inhibition at 10 µM [1] was 80%, the inhibition at 10 µM [2] was 55% and the inhibition at 10 µM [3] was 77%. It also gave an inhibition at 10 µM [4] of 94%.

For `CN(C)C(=O)NC1CCN(C(=O)c2ccc(/C=C/c3n[nH]c4ccccc34)cc2)CC1` [Compound 132, (E)-4-dimethylcarbamoylamino-1-{4-[2-(1H-indazol-3-yl)vinyl]benzoyl}piperidine], the inhibition at 10 µM [1] was 91%, the inhibition at 10 µM [2] was 95% and the inhibition at 10 µM [3] was 88%. For the same molecule, the inhibition at 10 µM [4] was 100%.

With `N[C@@H]1CCN(C(=O)c2ccc(/C=C/c3n[nH]c4ccccc34)cc2)C1` [Compound 158, (R)-(E)-1-{4-[2-(1H-Indazol-3-yl)vinyl]benzoyl}-3-aminopyrrolidine] the inhibition at 10 µM [1] was 91%, the inhibition at 10 µM [2] was 90% and the inhibition at 10 µM [3] was 80%. For the same molecule, the inhibition at 10 µM [4] was 98%.

In the case of `CCN(CC)CCNC(=O)c1ccc(/C=C/c2n[nH]c3ccccc23)cc1` [Compound 63, (E)-N-[2-(diethylamino)ethyl]-4-[2-(1H-indazol-3-yl)vinyl]benzamide], the inhibition at 10 µM [1] is reported as 88%, the inhibition at 10 µM [2] is reported as 76% and the inhibition at 10 µM [3] is reported as 87%. It also gave an inhibition at 10 µM [4] of 98%.

With `O=C(c1ccc(/C=C/c2n[nH]c3ccccc23)cc1)N1CCN(c2c(N3CCCCC3)c(=O)c2=O)CC1` [Compound 155, (E)-3-piperidino-4-{[4-(2-(1H-indazol-3-yl)vinyl)benzoyl]piperazin-1-yl}-3-cyclobutene-1,2-dione] the “cytostatic rate Colo205 (%) (10 μmol/L)” value [1] was 88%, the “cytostatic rate K562 (%) (10 μmol/L)” value [2] was 96% and the “cytostatic rate ML-1 (%) (10 μmol/L)” value [3] was 79%. For the same molecule, the “cytostatic rate MV-4-11 (%) (10 μmol/L)” value [4] was 97%.

In the case of `CCOC(=O)N1CCN(C(=O)c2ccc(/C=C/c3n[nH]c4ccccc34)cc2)CC1` [Compound 32, (E)-1-{4-[2-(1H-indazol-3-yl)vinyl]benzoyl}-4-ethoxycarbonylpiperazine], the inhibition at 10 µM [1] is reported as 85%, the inhibition at 10 µM [2] is reported as 86% and the inhibition at 10 µM [3] is reported as 80%. For the same molecule, the inhibition at 10 µM [4] was 94%.

Molecule `NC1CCN(C(=O)c2ccc(/C=C/c3n[nH]c4ccccc34)cc2)C1` (centres unmarked) [Compound 122, (E)-1-{4-[2-(1H-indazol-3-yl)vinyl]benzoyl}-3-aminopyrrolidine dihydrochloride] has an inhibition at 10 µM [1] of 89%, an inhibition at 10 µM [2] of 93% and an inhibition at 10 µM [3] of 79%. The inhibition at 10 µM [4] was 98%.

For `CCC(C)N1CCN(C(=O)c2ccc(/C=C/c3n[nH]c4ccccc34)cc2)CC1=O` (centres unmarked) [Compound 116, (E)-4-{4-[2-(1H-indazol-3-yl)vinyl]benzoyl}-1-(sec-butyl)piperazin-2-one hydrochloride], the inhibition at 10 µM [1] was 91%, the inhibition at 10 µM [2] was 88% and the inhibition at 10 µM [3] was 79%. The inhibition at 10 µM [4] was 98%.

For `CC(CO)(CO)C(=O)N1CCN(C(=O)c2ccc(/C=C/c3n[nH]c4ccccc34)cc2)CC1` [Compound 136, (E)-4-(3-hydroxy-2-hydroxymethyl-2-methylpropionyl)-1-{4-[2-(1H-indazol-3-yl)vinyl]benzoyl}piperazine hydrochloride], the inhibition at 10 µM [1] was 91%, the inhibition at 10 µM [2] was 94% and the inhibition at 10 µM [3] was 82%. For the same molecule, the inhibition at 10 µM [4] was 99%.

In the case of `CC(C)CC(=O)N1CCN(C(=O)c2ccc(/C=C/c3n[nH]c4ccccc34)cc2)CC1` [Compound 66, (E)-4-(3-methylbutyryl)-1-{4-[2-(1H-indazol-3-yl)vinyl]benzoyl}piperazine], the inhibition at 10 µM [1] is reported as 83%, the inhibition at 10 µM [2] is reported as 89% and the inhibition at 10 µM [3] is reported as 74%. For the same molecule, the inhibition at 10 µM [4] was 99%.

For `O=C(c1ccc(/C=C/c2n[nH]c3ccccc23)cc1)N1CCN(CCO)CC1` [Compound 105, (E)-1-{4-[2-(1H-indazol-3-yl)vinyl]benzoyl}-4-(2-hydroxyethyl)piperazine], the inhibition at 10 µM [1] was 88%, the inhibition at 10 µM [2] was 90% and the inhibition at 10 µM [3] was 85%. For the same molecule, the inhibition at 10 µM [4] was 96%.

`CN(C)CC(=O)N1CCN(C(=O)c2ccc(/C=C/c3n[nH]c4ccccc34)cc2)CC1` [Compound 125, (E)-4-dimethylaminoacetyl-1-{4-[2-(1H-indazol-3-yl)vinyl]benzoyl}piperazine] gave an inhibition at 10 µM [1] of 86%, an inhibition at 10 µM [2] of 91% and an inhibition at 10 µM [3] of 79%. The inhibition at 10 µM [4] was 98%.

`CC(C)(C)OC(=O)NN1CCN(C(=O)c2ccc(/C=C/c3n[nH]c4ccccc34)cc2)CC1` [Compound 148, (E)-1-{4-[2-(1H-indazol-3-yl)vinyl]benzoyl}-4-(tert-butyloxycarbonylamino)piperazine] showed an inhibition at 10 µM [1] of 83%, an inhibition at 10 µM [2] of 91% and an inhibition at 10 µM [3] of 81%. For the same molecule, the inhibition at 10 µM [4] was 98%.

In the case of `O=C(c1ccc(/C=C/c2n[nH]c3ccccc23)cc1)N1CCN(C(=O)c2ccsc2)CC1` [Compound 58, (E)-4-(3-thiophenecarbonyl)-1-{4-[2-(1H-indazol-3-yl)vinyl]benzoyl}piperazine], the inhibition at 10 µM [1] is reported as 85%, the inhibition at 10 µM [2] is reported as 89% and the inhibition at 10 µM [3] is reported as 74%. For the same molecule, the inhibition at 10 µM [4] was 96%.

In the case of `COC(=O)N1CCN(C(=O)c2ccc(/C=C/c3n[nH]c4ccccc34)cc2)CC1` [Compound 75, (E)-4-methoxycarbonyl-1-{4-[2-(1H-indazol-3-yl)vinyl]benzoyl}piperazine hydrochloride], the inhibition at 10 µM [1] is reported as 88%, the inhibition at 10 µM [2] is reported as 85% and the inhibition at 10 µM [3] is reported as 88%. For the same molecule, the inhibition at 10 µM [4] was 99%.

Molecule `CC(=O)N1CCN(C(=O)c2ccc(/C=C/c3n[nH]c4ccccc34)cc2C)CC1` [Compound 73, (E)-4-acetyl-1-{2-methyl-4-[2-(1H-indazol-3-yl)vinyl]benzoyl}piperazine] has an inhibition at 10 µM [1] of 89%, an inhibition at 10 µM [2] of 68% and an inhibition at 10 µM [3] of 87%. For the same molecule, the inhibition at 10 µM [4] was 97%.

For `CNCCNC(=O)c1ccc(/C=C/c2n[nH]c3ccccc23)cc1` [Compound 112, (E)-N-[2-(methylamino)ethyl]-4-[2-(1H-indazol-3-yl)vinyl]benzamide hydrochloride], the inhibition at 10 µM [1] was 88%, the inhibition at 10 µM [2] was 81% and the inhibition at 10 µM [3] was 83%. It also gave an inhibition at 10 µM [4] of 98%.
